# Laboratory results as given in US20260125400A1, “TYK2 DEGRADERS AND USES THEREOF” (Kymera Therapeutics, Inc., priority 2023, published 2026).
# Target: T1, TYK2 (Homo sapiens, UniProt P29597)
# T1 construct: Degradation of TYK2 in cells was quantitatively measured using Meso Scale Discovery (MSD) technology; endogenous in cells; host or cells: OCI-LY10
# Assay: TYK2 MSD degradation in OCI-LY10 cells
# Assay type: cell-based
# Conditions: TYK2 degradation in OCI-LY10 cells, 4 to 24 hours incubation; for DC50: read-out: TYK2 MSD OCI-LY10 Rel-DC50
# Procedure: Example 7. TYK2 MSD Degradation
# Degradation of TYK2 in cells was quantitatively measured using Meso Scale Discovery (MSD) technology. OCI-LY10 cells were seeded in 96-well plates with a density of 0.4 million cells per well in 100 μl fresh media. Compounds were then added to the assay plates with a final top concentration of 1 to 10 μM in a 1:3 dilution series with total of 9 doses. The assay plates were then incubated for 4 to 24 hours at 37° C. under […]. The assay plates were then centrifuged for 5 minutes, and the cell pellets were treated with 100 μl/well RIPA lysis buffer (Boston Bioproducts, BP-115D) with protease and phosphatase inhibitors (Roche, 05892791001 and 04906837001). To prepare MSD assay plates (MSD, L15XA), the plates were coated with the capture antibody (Santa Cruz Biotechnology, SC-5271) in PBS, at 40 μl/well. The plates were then incubated overnight at 4° C., washed 3 times with 150 μl/well TBST buffer (Cell Signaling Technology, 9997S) and blocked with 150 μl/well blocking buffer (MSD, R93BA-4). Cell lysates were then added to MSD assay plates and the plates were incubated at room temperature for 1 hour. The plates were then washed 3 times with 150 μl/well TBST buffer and 25 μl/well primary detection antibody (Cell Signaling Technology, #9312). The assay plates were then incubated at room temperature for 1 hour, washed 3 times with 150 μl/well TBST buffer, and 25 μl/well secondary detection antibody, SULFO-TAG anti-rabbit antibody (MSD, R32AB-1) were added. The assay plates were then incubated at room temperature for 1 hour, washed 3 times with 150 μl/well TB ST buffer, and 150 μl/well MSD reading buffer (MSD, R92TC-2) were added. The plates were then analyzed by an MSD reader. The data was analyzed by GraphPad Prism and the dose dependent TYK2 degradation was fit using the four-parameter inhibitor vs. response nonlinear regression.
# The letter codes for TYK2 DC50 include: A (<1 nM); B (i to <10 nM); C (10 to 100 nM); D (>100 nM); and E (not tested). The letter codes for TYK2 Dmax % include: A (>90%); B (90 to >75%); C (75 to 50%); D (<50%); and E (not tested).
# T1 sequence (P29597 whole entry): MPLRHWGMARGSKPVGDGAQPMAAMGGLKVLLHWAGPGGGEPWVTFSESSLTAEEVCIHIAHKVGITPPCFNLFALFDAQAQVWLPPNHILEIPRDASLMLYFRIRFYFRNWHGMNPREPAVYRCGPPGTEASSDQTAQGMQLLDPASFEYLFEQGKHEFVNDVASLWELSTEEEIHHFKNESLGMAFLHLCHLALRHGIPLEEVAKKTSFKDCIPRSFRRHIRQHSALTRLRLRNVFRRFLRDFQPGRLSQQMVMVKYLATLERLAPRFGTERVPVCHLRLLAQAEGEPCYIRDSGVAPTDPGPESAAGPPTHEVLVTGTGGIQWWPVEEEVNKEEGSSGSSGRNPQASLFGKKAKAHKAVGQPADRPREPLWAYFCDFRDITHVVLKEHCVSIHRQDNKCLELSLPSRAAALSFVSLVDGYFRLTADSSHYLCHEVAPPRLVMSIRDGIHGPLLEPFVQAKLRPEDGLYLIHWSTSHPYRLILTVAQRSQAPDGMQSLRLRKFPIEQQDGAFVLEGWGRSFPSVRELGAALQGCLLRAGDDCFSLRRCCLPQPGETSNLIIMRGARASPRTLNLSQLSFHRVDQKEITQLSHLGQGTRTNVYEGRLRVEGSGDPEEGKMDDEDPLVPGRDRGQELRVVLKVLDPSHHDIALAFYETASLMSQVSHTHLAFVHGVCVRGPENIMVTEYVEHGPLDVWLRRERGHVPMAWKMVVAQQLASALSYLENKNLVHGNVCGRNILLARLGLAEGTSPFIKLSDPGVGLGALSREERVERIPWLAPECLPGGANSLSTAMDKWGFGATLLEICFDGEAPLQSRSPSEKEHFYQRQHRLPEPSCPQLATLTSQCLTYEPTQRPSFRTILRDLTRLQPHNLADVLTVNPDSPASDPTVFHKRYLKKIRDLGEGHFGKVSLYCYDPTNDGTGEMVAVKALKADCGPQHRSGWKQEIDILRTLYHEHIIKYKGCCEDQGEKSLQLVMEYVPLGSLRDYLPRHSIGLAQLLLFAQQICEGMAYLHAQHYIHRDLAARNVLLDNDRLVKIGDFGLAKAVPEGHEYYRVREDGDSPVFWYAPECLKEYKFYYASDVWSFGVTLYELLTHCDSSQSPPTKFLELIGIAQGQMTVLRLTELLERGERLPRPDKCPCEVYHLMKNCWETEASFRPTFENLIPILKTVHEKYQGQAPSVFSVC
SMILES,TYK2 MSD OCI-LY10 Dmax %,DC50
CNc1cc(N2CCc3c(CN4CCC(N5CCC6(CCN(c7ccc8c(c7)n(C)c(=O)n8C7CCC(=O)NC7=O)CC6)CC5)C(F)(F)C4)cccc32)nn2c(C(=O)N[C@@H]3C[C@@H]3F)cnc12 (stereo partly shown) [I-237],B (B (90 to >75%)),< 1 nM
CNc1cc(N2CCc3c(C#CCN4CC5(CCN(C(=O)c6ccc(Cl)c(N7CCC(=O)NC7=O)c6)CC5(F)F)C4)cccc32)nn2c(C(=O)N[C@@H]3C[C@@H]3F)cnc12 [I-241],C (C (75 to 50%)),< 10 nM
CNc1cc(N2CCc3c(C#CCN4CCC5(CCN(C(=O)c6ccc(Cl)c(N7CCC(=O)NC7=O)c6)CC5)C(F)(F)C4)cccc32)nn2c(C(=O)N[C@@H]3C[C@@H]3F)cnc12 [I-242],C (C (75 to 50%)),< 10 nM
CNc1cc(N2CCc3c(-c4ccc(CN5CCC(N6CCC(Oc7ccc(Cl)c(N8CCC(=O)NC8=O)c7)CC6)C(F)(F)C5)cn4)cccc32)nn2c(C(=O)N[C@@H]3C[C@@H]3F)cnc12 (stereo partly shown) [I-245],D (D (<50%)),> 100 nM
CNc1cc(N2CCc3c(-c4ccc(CN5CC6(CCN(C(=O)c7ccc(Cl)c(N8CCC(=O)NC8=O)c7)CC6)C5)nc4)cccc32)nn2c(C(=O)N[C@@H]3C[C@@H]3F)cnc12 [I-247],B (B (90 to >75%)),< 10 nM
CNc1cc(N2CCc3c(-c4cc(N5CCC6(CCN(C(=O)c7ccc(Cl)c(N8CCC(=O)NC8=O)c7)CC6)CC5)ccn4)cccc32)nn2c(C(=O)N[C@@H]3C[C@@H]3F)cnc12 [I-248],C (C (75 to 50%)),< 10 nM
CNc1cc(N2CCc3c(-c4ccc(N5CCC6(CCN(C(=O)c7ccc(Cl)c(N8CCC(=O)NC8=O)c7)CC6)CC5)cn4)cccc32)nn2c(C(=O)N[C@@H]3C[C@@H]3F)cnc12 [I-249],D (D (<50%)),> 100 nM
CNc1cc(N2CCc3c(-c4ncc(CN5CC6(CCN(C(=O)c7ccc(Cl)c(N8CCC(=O)NC8=O)c7)CC6)C5)cn4)cccc32)nn2c(C(=O)N[C@@H]3C[C@@H]3F)cnc12 [I-250],B (B (90 to >75%)),< 1 nM
CNc1cc(N2CCc3c(-c4ccc(CN5CCC6(CCC(Nc7ccc(Cl)c(C8CCC(=O)NC8=O)c7)CC6)CC5)cn4)cccc32)nn2c(C(=O)N[C@@H]3C[C@@H]3F)cnc12 (stereo partly shown) [I-251],C (C (75 to 50%)),< 10 nM
CNc1cc(N2CCc3c(-c4ccc(CC5CC6(CCN(C(c7ccc(Cl)c(N8CCC(=O)NC8=O)c7)C(F)(F)F)CC6)C5)cn4)cccc32)nn2c(C(=O)N[C@@H]3C[C@@H]3F)cnc12 (stereo partly shown) [I-272],D (D (<50%)),> 100 nM
CNc1cc(N2CCc3c(-c4ccc(CN5CCC(N6CC(N7CCN(c8cccc9c8n(C)c(=O)n9C8CCC(=O)NC8=O)CC7)C6)C(F)(F)C5)cn4)cccc32)nn2c(C(=O)N[C@@H]3C[C@@H]3F)cnc12 (stereo partly shown) [I-277],B (B (90 to >75%)),< 1 nM
CNc1cc(N2CCc3c(-c4ccc(CN5CCC(N6CC7(CCN(c8cccc9c8n(C)c(=O)n9C8CCC(=O)NC8=O)CC7)C6)C(F)(F)C5)cn4)cccc32)nn2c(C(=O)N[C@@H]3C[C@@H]3F)cnc12 (stereo partly shown) [I-279],B (B (90 to >75%)),< 10 nM
CNc1cc(N2CCc3c(-c4ccc(CN5CCC(N6CCC7(CC6)CN(c6cccc8c6n(C)c(=O)n8C6CCC(=O)NC6=O)C7)C(F)(F)C5)cn4)cccc32)nn2c(C(=O)N[C@@H]3C[C@@H]3F)cnc12 (stereo partly shown) [I-280],B (B (90 to >75%)),< 10 nM
CNc1cc(N2CCc3c(-c4ccc(CN5CCC(N6CCC7(CCN(c8cccc9c8n(C)c(=O)n9C8CCC(=O)NC8=O)CC7)CC6)C(F)(F)C5)cn4)cccc32)nn2c(C(=O)N[C@@H]3C[C@@H]3F)cnc12 (stereo partly shown) [I-281],C (C (75 to 50%)),< 10 nM
CNc1cc(N2CCc3c(-c4ccc(CN5CCC(N6CC(N7CCN(c8ccc9c(c8)n(C)c(=O)n9C8CCC(=O)NC8=O)CC7)C6)C(F)(F)C5)cn4)cccc32)nn2c(C(=O)N[C@@H]3C[C@@H]3F)cnc12 (stereo partly shown) [I-282],B (B (90 to >75%)),< 1 nM
CNc1cc(N2CCc3c(N4CCN(C5CC6(CCN(C(=O)c7ccc(Cl)c(N8CCC(=O)NC8=O)c7)CC6)C5)CC4)cccc32)nn2c(C(=O)N[C@@H]3C[C@@H]3F)cnc12 [I-283],D (D (<50%)),> 100 nM

SMILES,TYK2 MSD OCI-LY10 Dmax %,DC50
CNc1cc(N2CCc3c(N4CCN(C5CCC6(CC5)CCN(C(=O)c5ccc(Cl)c(N7CCC(=O)NC7=O)c5)CC6)CC4)cccc32)nn2c(C(=O)N[C@@H]3C[C@@H]3F)cnc12 [I-284],D (D (<50%)),> 100 nM
CNc1cc(N2CCc3c(N4CCN(C5CCN(C6CCN(C(=O)c7ccc(Cl)c(N8CCC(=O)NC8=O)c7)CC6)CC5)CC4)cccc32)nn2c(C(=O)N[C@@H]3C[C@@H]3F)cnc12 [I-287],D (D (<50%)),> 100 nM
CNc1cc(N2CCc3c(N4CCN(C5CN(C6CCN(C(=O)c7ccc(Cl)c(N8CCC(=O)NC8=O)c7)CC6)C5)CC4)cccc32)nn2c(C(=O)N[C@@H]3C[C@@H]3F)cnc12 [I-288],D (D (<50%)),> 100 nM
CNc1cc(N2CCc3c(-c4ccc(CN5CCC6(CCN(Cc7ccc(Cl)c(N8CCC(=O)NC8=O)c7)CC6)C(F)(F)C5)cn4)cccc32)nn2c(C(=O)N[C@@H]3C[C@@H]3F)cnc12 [I-289],D (D (<50%)),> 100 nM
CNc1cc(N2CCc3c(CN4CCC(N5CCC(Oc6ccc(Cl)c(N7CCC(=O)NC7=O)c6)CC5)C(F)(F)C4)cccc32)nn2c(C(=O)N[C@@H]3C[C@@H]3F)cnc12 (stereo partly shown) [I-291],D (D (<50%)),> 100 nM
CNc1cc(N2CCc3c(-c4ccc(CN5CC6(C5)CN(C(=O)c5ccc(Cl)c(N7CCC(=O)NC7=O)c5)C6)cn4)cccc32)nn2c(C(=O)NC3CC3F)cnc12 (stereo not shown) [I-295],D (D (<50%)),< 10 nM
CNc1cc(N2CCc3c(-c4ccc(CN5CC6(CCN(C(=O)c7ccc(Cl)c(N8CCC(=O)NC8=O)c7)C6)C5)cn4)cccc32)nn2c(C(=O)NC3CC3F)cnc12 (stereo not shown) [I-296],C (C (75 to 50%)),< 1 nM
CNc1cc(N2CCc3c(-c4ccc(CN5CCC6(C5)CN(C(=O)c5ccc(Cl)c(N7CCC(=O)NC7=O)c5)C6)cn4)cccc32)nn2c(C(=O)NC3CC3F)cnc12 (stereo not shown) [I-297],C (C (75 to 50%)),< 10 nM
CNc1cc(N2CCc3c(-c4ccc(CN5CCC6(CCN(C(=O)c7ccc(Cl)c(N8CCC(=O)NC8=O)c7)C6)C5)cn4)cccc32)nn2c(C(=O)NC3CC3F)cnc12 (stereo not shown) [I-302],C (C (75 to 50%)),< 1 nM
CNc1cc(N2CCc3c(-c4ccc(CN5CC6(CCN(C(=O)c7cccc(N8CCC(=O)NC8=O)c7C)CC6)C5)cn4)cccc32)nn2c(C(=O)NC3CC3F)cnc12 (stereo not shown) [I-309],D (D (<50%)),> 100 nM
CNc1cc(N2CCc3c(-c4ccc(CN5CCN(CC#Cc6cccc(N7CCC(=O)NC7=O)c6C)CC5)cn4)cccc32)nn2c(C(=O)NC3CC3F)cnc12 (stereo not shown) [I-311],C (C (75 to 50%)),> 100 nM
CNc1cc(N2CCc3c(-c4ccc(CN5CCC6(CCC(COc7ccc(N8CCC(=O)NC8=O)c(Cl)c7)CC6)CC5)cn4)cccc32)nn2c(C(=O)N[C@@H]3C[C@@H]3F)cnc12 [I-339],D (D (<50%)),< 10 nM
CNc1cc(N2CCc3c(CN4CCC(N5CCC(N6CCN(c7ccc8c(c7)n(C)c(=O)n8C7CCC(=O)NC7=O)CC6)CC5)C(F)(F)C4)cccc32)nn2c(C(=O)N[C@@H]3C[C@@H]3F)cnc12 (stereo partly shown) [I-347],B (B (90 to >75%)),< 1 nM
CNc1cc(N2CCc3c(-c4ccc(CN5CC6(CCN(C(=O)c7cnc(C)c(N8CCC(=O)NC8=O)c7)CC6)C5)cn4)cccc32)nn2c(C(=O)N[C@@H]3C[C@@H]3F)cnc12 [I-351],B (B (90 to >75%)),< 1 nM
CNc1cc(N2CCc3c(-c4ccc(CN5CC6(CCN(C(=O)c7cnc(OC)c(N8CCC(=O)NC8=O)c7)CC6)C5)cn4)cccc32)nn2c(C(=O)N[C@@H]3C[C@@H]3F)cnc12 [I-352],B (B (90 to >75%)),< 1 nM
CNc1cc(N2CCc3c(-c4ccc(CN5CC6(CCN(C(=O)c7cncc(N8CCC(=O)NC8=O)c7)CC6)C5)cn4)cccc32)nn2c(C(=O)N[C@@H]3C[C@@H]3F)cnc12 [I-353],D (D (<50%)),> 100 nM
